Measurements reported in patent publication US20210236512A1 (ZARODEX THERAPEUTICS LIMITED, priority 2018, published 2021).
“Also recorded” adds a separate entry of the source.

Experiments:
[1] = First observational study: infection questionnaire, antibiotic courses and hospital admission rates; assay type: in vivo, human
[2] = system: Vaccine specific-IgG (Haemophilus influenza B, Pneumococcus, Tetanus); settings: human, in vivo
[3] = system: circulating total IgG, IgA and IgM; experiment: Second observational study (interim analysis): circulating immunoglobulins and pneumococcal-specific IgG; assay type: in vivo, human
[4] = system: B cell subsets in spleen and inguinal lymph nodes; experiment: Mouse CIA model: B cell subsets in spleen and lymph nodes by FACS; assay type: in vivo, DBA/1 mice
[5] = system: T follicular helper cells and T regulatory cells; experiment: Mouse CIA model: T follicular helper and T regulatory cells in spleen and lymph node by flow cytometry; assay type: in vivo, DBA/1 mice
[6] = human, in vivo; cited from earlier work
[7] = system: serum/plasma IgG, IgA, IgM; settings: cited from earlier work
[8] = system: B cell subsets and T cells in spleen; experiment: Wild type mouse study: spleen immunophenotyping by flow cytometry
[9] = clozapine treatment for six weeks (Hinze-Selch et al., 1998)

In the case of `CN1CCN(C2=Nc3cc(Cl)ccc3Nc3ccccc32)CC1` [Clozapine, clozapine], the “Admitted to hospital with infection” value ([1]; clozapine group (vs 0.06 in controls)) is reported as 0.12 per patient year, the “Admission frequency in 12-month period, all cause: patients admitted” value ([1]; clozapine-treated patients) is reported as 14 patients and the “Admission frequency in 12-month period, infection-related: admissions” value ([1]; clozapine-treated patients) is reported as 15. The “Admission frequency in 12-month period, infection-related: patients admitted” value ([1]; clozapine-treated patients) was 10 patients, the “Antibiotic courses per year: 1-5 courses, percentage of patients” value ([1]; clozapine-treated patients) was 33.0% and the “Antibiotic courses per year: >5 courses, percentage of patients” value ([1]; clozapine-treated patients) was 5.3%. For the same compound, the “Antibiotic courses per year: nil courses, percentage of patients” value ([1]; clozapine-treated patients) was 61.7%, the “Antibiotic courses per year: >5 courses, percentage of patients” value ([1]; clozapine-treated patients, listed as clozapine) was 5.3% and the “Failed to develop an IgG response above >=50 mg/L following Pneumovax II” value [2] was 73%. The “Failing to exceed the >=0.1 IU/mL post-vaccination Tetanus-IgG level” value [2] was 1/12, the “Failing to mount a Haemophilus-IgG response >=1 mcg/ml post-Menitorix (HiB/MenC) vaccination” value [2] was 42% and the “IgG to Haemophilus influenza B (HiB) <1 mcg/ml at initial assessment, patients” value [2] was 75%. For the same compound, the “Pneumococcus-IgG <50 mg/L at initial assessment, patients” value [2] was 94%, the “Response to haemophilus and/or pneumococcal vaccination, individual referred patient” value [2] was “Failure to responds to; also recorded: Durable pneumococcal; also recorded: Non-durable” and the “Responses to vaccination impaired, patients / patients assessed” value [2] was 10/11. For the same compound, the “Tetanus-IgG <0.1 IU/mL at initial assessment, patients” value [2] was 38%, the “Levels of circulating total IgG, IgA and IgM vs clozapine naive” value ([3]; FIG. 6A-C) was “Significantly reduced” and the “IgG antibodies against pneumococcus vs clozapine naive” value ([3]; FIG. 7) was “trend to lower”. The “Proportion of B220+ B cells in spleen” value ([4]; 10 mg/kg from day 1) was “significantly reduced”, the “Proportion of plasma cells in spleen” value ([4]; 10 mg/kg given on day 1) was “significant reduction” and the “Level of GL7 expression on follicular B cells in lymph node” value ([4]; all clozapine treatment groups vs vehicle, dose- and time-dependent) was “significantly decreased”. The “Percentage of B220+ B cells in lymph nodes” value ([4]; all doses and time points (5 or 10 mg/kg from day 1 or day 15)) was “significantly lower”, the “Lymph node follicular B cells (B220+IgD-Fas+GL7hi)” value ([4]; all doses/both time points) was “Strikingly significant reductions” and the “Plasma cell numbers in lymph node” value ([4]; all doses/times) was “no significant effect”. For the same compound, the “Plasma cells as a proportion of live cells in spleen compared to control” value ([4]; every other dose/time evaluated) was “nominally lower values”, the “Proportions of CD4+PD1+CXCR5+ T follicular helper cells in lymph node or spleen” value ([5]; 5 or 10 mg/kg from day 1 or day 15) was “did not significantly affect” and the “Expression of PD-1 (MFI) in lymph node T follicular helper cells” value ([5]; all doses and time points) was “Reduced expression”. The “Expression of CD25 on Tregs” value ([5]; dosed from day 1) was “significantly upregulate”, the “Foxp3 expression on Tregs” value ([5]; dosed from day 1) was “not alter” and the “CXCR5 expression (MFI) on T follicular helper cells” value ([5]; dosed from day 1, lymph node and spleen) was “significant reductions”. For the same compound, the “Proportion of CD4+CD25+Foxp3+ T regulatory cells (Tregs)” value ([5]; higher dose tested, from day 1, lymph node and spleen) was “increase the proportion”, the “Expression of CCR7 on T follicular helper cells” value ([5]; lymph node and spleen) was “reduced expression” and the “Previously treatment refractive schizophrenia patients in whom effective” value [6] was “approximately 60%”. The “IgA, IgG, absolute neutrophil count and white blood cell count vs control group” value ([7]; Lozano et al., 2016) was “no differences”, the “IgA or IgM concentrations or pattern of autoantibodies” value [7, 9] was “no significant effect” and the “Serum concentrations of IgG” value [7, 9] was “significant increases”. The “Mean plasma levels of IgM vs control group” value ([7]; outpatients on clozapine for at least five years (Lozano et al., 2016)) was “overall decrease”, the “Other splenic cell populations (B220-TCR-b-)” value ([8]; 5 mg/kg and 10 mg/kg) was “No effect” and the “Percentage of splenic T cells” value ([8]; 5 mg/kg and 10 mg/kg) was “reciprocal increase”. The “Percentage of splenic B cells (B220+TCR-b-) as a proportion of total live splenocytes” value ([8]; 5 mg/kg and 10 mg/kg IP, 21 days) was “significantly lower”, the “Proportion of T2 B cells in the spleen” value ([8]; across all doses of clozapine) was “small increase” and the “Activated T cells (B220+TCR-b+) in spleen vs control” value ([8]; clozapine 2.5-10 mg/kg) was “reduced in dose-dependent fashion”. The “Splenic follicular or marginal zone B cell subsets” value ([8]; clozapine IP, 21 days) was “no specific reductions”, the “Proportion of transitional stage 1 (T1) B cells in the spleen” value ([8]; including at the 2.5 mg/kg dose) was “mildly reduced” and the “Germinal centre cells in the spleen vs control or haloperidol” value ([8]; steady state) was “no differences”.
